In PubChem BioAssay AID720588 (Broad Institute, 2013):
Active and inactive are the calls of the source.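 Rule for the calls: active = fitted curve falls past a set limit of signal loss at no more than twice the top dose; inconclusive = flat fit between 30 and 70% signal loss, or poor fit; inactive = signal rise, flat within 30%, or crossing too high.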

Experiment: HEK293T cell cytotoxicity, dose response, cytotoxicity control, CellTiter-Glo luminescence, cherry-pick, set 3 (AID 720588)
Settings: HEK293T viability, CellTiter-Glo ATP luminescence, 72 h; at 26 µM (top of the series)

Row | SMILES | activity change, negative = cytotoxicity
1 | OCC1OC(n2cnc3c(NCc4ccco4)ncnc32)C(O)C1O (stereo not drawn) | -35.2% (inactive)
2 | CC(Oc1cccc(Cl)c1)C(=O)NCCCCc1ccccc1 (stereo not drawn) | -2.08% (inactive)
3 | O=C(CN1C(=O)c2ccccc2S1(=O)=O)c1ccc(F)cc1 | 6.26% (inactive)
4 | Cc1nc2cc(-c3ccc(Cl)cc3)nn2c(C)c1CCC(=O)NC(C)c1ccc2c(c1)OCCO2 (stereo not drawn) | -34.9% (inactive)
5 | C[C@@H]1CN([C@@H](C)CO)C(=O)Cc2cc(NC(=O)Cn3cnnn3)ccc2O[C@@H]1CN(C)Cc1ccc(Oc2ccccc2)cc1 | 14.3% (inactive)
6 | COc1cc(/C=N\Nc2nc(-c3ccc(C)cc3)c(NC(C)=O)s2)ccc1O | -4.57% (inactive)
7 | CN(C)C(=O)c1ccc(-c2ccccc2[C@@H]2[C@@H](CO)N(C(=O)C3CC3)[C@H]2C#N)cc1 | 13.4% (inactive)
8 | CCOc1ccccc1CNC(=O)c1ccc(Sc2ccc(Cl)cc2)c(NC(C)=O)c1 | -4.6% (inactive)
9 | O=C1c2ccc3c4c(ccc(c24)C(=O)N1c1cccc(O)c1)C(=O)N(c1cccc(O)c1)C3=O | 7.85% (inactive)
10 | CCCCN=C(NNc1ccc(Br)cc1)C(=O)OCC | -39.4% (inactive)
11 | COC(=O)C[C@@H]1CC[C@@H]2[C@@H](COc3ccc(NC(=O)Nc4cccc(F)c4)cc3C(=O)N2C)O1 | -28.1% (inactive)
12 | COC(=O)C[C@@H]1CC[C@@H]2[C@@H](COc3ccc(NC(=O)Nc4cccc(C#N)c4)cc3C(=O)N2C)O1 | 16.9% (inactive)
13 | Nc1ccn([C@@H]2O[C@H](CO)[C@@H](O)C2O)c(=O)n1 (stereo partly drawn) | -12.5% (inactive)
14 | COc1ccccc1N(/N=C1\Sc2ccccc2C1=O)C(C)=O | -23.6% (inactive)
15 | O=C(CNC(=O)Cc1ccccc1)N=Nc1c(O)n(Cc2ccc3c(c2)OCO3)c2ccccc12 | -23.2% (inactive)
16 | COc1ccc(Nc2oc(COc3ccccc3OC)nc2C#N)cc1 | -13.8% (inactive)
17 | CC(NC(=O)c1ccco1)c1nc(-c2ccc(C(C)(C)C)cc2)no1 (stereo not drawn) | -23% (inactive)
18 | COC(=O)c1c(C)[nH]c(/C=N/Nc2ccccc2)c1C | -4.63% (inactive)
19 | O=C(Nc1ccc(OC(=O)N2CCCCC2)cc1)N1CCOCC1 | -2.87% (inactive)

Row | SMILES | activity change, negative = cytotoxicity
20 | OC[C@H]1O[C@@H](n2cnc3c(NCc4ccco4)ncnc32)[C@H](O)[C@@H]1O | -42.7% (inactive)
21 | CC1=NC(=O)C(N=Nc2cccc(C(=O)O)c2)N1c1ccccc1 (stereo not drawn) | -10% (inactive)
22 | Nc1sc(-c2ccccc2)cc1-c1n[nH]c(=S)n1C1CCCCC1 | -4.9% (inactive)
23 | CO[C@H]1CN(C)C(=O)c2cc(NC(=O)NC(C)C)ccc2OC[C@H](C)N(Cc2ccc(-c3ccccn3)cc2)C[C@@H]1C | -13.6% (inactive)
24 | COc1cc(-c2cnc3c(NC=O)cc(-c4cccc(NC(C)=O)c4)cn23)cc(OC)c1OC | 27.3% (inactive)
25 | O=c1[nH]c(=O)n(C2C[C@H](O)[C@@H](CO)O2)cc1C(F)(F)F (stereo partly drawn) | -9.97% (inactive)
26 | COC(=O)c1cccc(NC(=O)NC(=O)c2ccc(Cl)cc2)c1 | -17% (inactive)
27 | CCOc1cc2[nH]c(=S)n(Cc3ccc(C(=O)N4CCN(C)CC4)cc3)c(=O)c2cc1OCC | -20.5% (inactive)
28 | S=C(NCCN1CCOCC1)Nc1ccccc1Cl | -17.7% (inactive)
29 | COc1ccccc1/C=C1\SC(=S)N(CCC(=O)Nc2cc(C)on2)C1=O | 8.14% (inactive)
30 | COCCCNc1ccn2nc(-c3ccccc3)cc2n1 | -27.1% (inactive)
31 | Cc1cc(C(=O)CN2C(=O)c3ccccc3S2(=O)=O)c(C)n1C(C)C | 15.7% (inactive)
32 | O=C(O)c1ccc(N/N=C/c2ccc(OC(=O)c3cccc(Cl)c3)cc2)cc1 | -29.8% (inactive)
33 | O=C(/C=C/c1cc(Br)ccc1O)c1ccco1 | -23.9% (inactive)
34 | Nc1ccc(-c2cc3ccccc3c(=O)o2)cc1 | -6.69% (inactive)
35 | O=C(NCc1ccccn1)c1ccc(CNS(=O)(=O)c2cccc(Cl)c2)cc1 | -15.8% (inactive)
36 | COC(=O)C[C@@H]1CC[C@@H]2[C@H](COc3ccc(NC(=O)c4ccc(C(F)(F)F)cc4)cc3C(=O)N2C)O1 | -2.65% (inactive)
37 | CCCc1cc(=O)oc2c3c(c4c(c12)OC(C)(C)C=C4)OC(C)C(C)C3O (stereo not drawn) | -7.17% (inactive)
38 | O=C(NCc1cccnc1)C1Cc2c(-c3ccc(Cl)cc3)ccnc2O1 (stereo not drawn) | -17.5% (inactive)
